Laboratory results from ChEMBL document CHEMBL1127096, “Synthesis and anticonvulsant activity of the (+)- and ()-enantiomers of 1,2,3,4-tetrahydro-5-(2-phosphonoethyl)-3-isoquinolinecarboxylic acid, a competitive NMDA antagonist” (Bioorg Med Chem Lett, 1993).

Assays:
[1] = tested on: Mus musculus; assay: Tested in vivo for anticonvulsant activity against maximal electroshock in mouse, intravenously (MES tested at 1 h); assay type: functional
[2] = tested on: Mus musculus; assay: Tested in vivo for the ability to produce ataxia in mouse, intravenously. (ataxia tested at 30 min); assay type: functional
[3] = Tested for the therapeutic index, which was determined as the ratio of ED50 for ataxia and ED50 to prevent seizures; settings: for selectivity ratio: read-out: TI
[4] = tested on: Mus musculus; assay: Tested in vivo for anticonvulsant activity against maximal electroshock in mouse, intravenously; assay type: functional
[5] = Partition coefficient (logP); assay type: physicochemical; settings: octanol/water
[6] = biological target: Glutamate NMDA receptor; assay: Tested for the inhibitory activity against NMDA receptor site as measured in a [3H]CPP binding assay of rat brain neuronal membranes
[7] = Tested for the NMDA antagonist activity, glutamate induced LDH release in cultured neuronal cells; assay type: functional, cell-based
[8] = Tested for the NMDA antagonist activity, glutamate induced calcium influx in cultured neuronal cells; assay type: functional, cell-based

Row | logP [5] | IC50 [7] [µM] | IC50 [8] [µM] | SMILES | ED50 [1] [mg/kg] | ED50 [2] [mg/kg] | selectivity ratio [3] | ED50 [4] [mg/kg] | also measured
1 |  |  |  | O=C(O)[C@H]1Cc2c(CCP(=O)(O)O)cccc2CN1 | 3.56 | 6.29 | 1.76 |  | 
2 |  |  |  | C/C(=C\C(N)C(=O)O)CP(=O)(O)O (single isomer, unassigned; (+)) [CGP-37849] |  |  |  | 7 | 
3 | 1.4 | 8.8 | 5.1 | O=C(O)[C@H]1Cc2c(CCP(=O)(O)O)cccc2CN1 (racemic) | 9.2 | 15.84 |  |  | IC50 [6]: 0.27 µM; TI [3]: 1.72
4 |  |  |  | C/C(=C\C(N)C(=O)O)CP(=O)(O)O (single isomer, unassigned; (-)) [CGP-37849] |  |  |  | >60 | 
5 | -3.4 | 9 | 2.4 | O=C(O)C1CN(CCCP(=O)(O)O)CCN1 (centres undefined) |  |  | 2.21 |  | ED50 ([1]; Mus musculus, iv, 1 h, read-out: ED50): 2.35 mg/kg; ED50 ([2]; Mus musculus, iv, 0.5 h, read-out: ED50): 5.21 mg/kg
6 |  |  |  | C/C(=C\C(N)C(=O)O)CP(=O)(O)O (racemic) [CGP-37849] |  |  |  | 21 | 
